Test results as given in patent US9657015B2, “Substituted bicyclic dihydropyrimidinones and their use as inhibitors of neutrophil elastase activity” (Boehringer Ingelheim International GmbH, priority 2014, dated 2017).
Converted amounts (≈) assume the structure as drawn.

What was measured:
[1] = target: neutrophil elastase in human plasma (Homo sapiens (Human), UniProt P08246); test: Neutrophil elastase inhibitory activity in human plasma; assay type: biochemical; conditions: human plasma assay (zymosan-stimulated blood plasma), substrate 250 μM, pH 7.5
[2] = Drug transport across human Caco-2 cells; assay type: in vitro ADME; conditions: human, Caco-2 monolayers, pH 7.2, 37° C.; for Papp A→B at 10 µM: apical-to-basal, read-out: PEAB; for Papp B→A at 10 µM: basal-to-apical, read-out: PEBA
Description: (§1) Assay for Determination of Drug Transport Across Human Caco-2 Cells
(§2) The assay provides information on the potential of a compound to pass the cell membrane, on the extent of oral absorption as well as on whether the compound is actively transported by uptake and/or efflux transporters. For the measurement of permeability across polarized, confluent human cancer colon carcinoma cells 2 (Caco-2) cell monolayers grown on permeable filter supports are used as the in vitro absorption model.
(§3) Apparent permeability coefficients (PE) of the compounds across the Caco-2 monolayers are measured (pH 7.2, 37° C.) in apical-to-basal (AB) (absorptive) and basal-to-apical (BA) (secretory) transport direction. AB permeability (PEAB) represents drug absorption from the intestine into the blood and BA permeability (PEBA) drug secretion from the blood back into the intestine via both passive permeability as well as active transport mechanisms mediated by efflux and uptake transporters that are expressed on the Caco-2 cells. The compounds are assigned to permeability/absorption classes by comparison of the AB permeabilities with the AB permeabilities of reference compounds with known in vitro permeability and oral absorption in the human. Identical or similar permeabilities in both transport directions indicate passive permeation, vectorial permeability points to additional active transport mechanisms. […] Active transport is concentration-dependently saturable.
(§4) Caco-2 cells (1-2*10^5 cells/cm^2 area) are seeded on filter inserts (Costar transwell polycarbonate or PET filters, 0.4 μm pore size) and cultured (DMEM) for 10 to 25 days. Compounds are dissolved in appropriate solvent (like DMSO, 1-20 mM stock solutions). Stock solutions are diluted with HTP-4 buffer (128.13 mM NaCl, 5.36 mM KCl, 1 mM MgSO4, 1.8 mM CaCl2, 4.17 mM NaHCO3, 1.19 mM Na2HPO4×7H2O, 0.41 mM NaH2PO4×H2O, 15 mM HEPES, 20 mM glucose, pH 7.2) to prepare the transport solutions (typically 10 μM compound, final DMSO<=0.5%). The transport solution (TL) is applied to the apical or basolateral donor side for measuring A-B or B-A permeability (3 filter replicates), respectively. The receiver side contains HTP-4 buffer supplemented with 2% BSA. Samples are collected at the start and end of experiment from the donor and at various time intervals for up to 2 hours also from the receiver side for concentration measurement by LC-MS/MS or scintillation counting. Sampled receiver volumes are replaced with fresh receiver solution.
(§5) The apparent permeability coefficients (PEAB and PEBA) of selected compounds in the Caco-2 drug transport assay described above are listed in Table 9.

[3] = Aqueous solubility (High Throughput Method); assay type: physicochemical; conditions: McIlvaine buffer pH 6.8, 2.5% DMSO, 24 h shaking; for solubility at 24 h: McIlvaine buffer pH 6.8 with 2.5% DMSO, aqueous buffer, kinetic from dmso stock
Description: Assay for Determination of Aqueous Solubility (“High Throughput Method”)
Starting from a 10 mM DMSO stock solution, aliquots are diluted with acetonitrile/water (1/1) and McIlvaine buffer pH 6.8, respectively. After 24 h of shaking, the solutions or suspensions are filtered and analyzed by LC-UV. The amount dissolved in buffer is compared to the amount dissolved in the acetonitrile/water (1/1) solution. Solubility is measured from 0.001 to 0.125 mg/ml at a DMSO concentration of 2.5%. If more than 90% of the compound is dissolved in buffer, the value is marked with “>”.

[4] = Aqueous solubility (Shaked Flask Method); assay type: physicochemical; conditions: aqueous buffer, thermodynamic from solid, pH 6.8 (McIlvaine buffer)
Description: Assay for Determination of Aqueous Solubility (“Shaked Flask Method”)
Saturated solutions are prepared in well plates by adding an appropriate volume of selected aqueous media (typically in the range of 0.25-1.5 ml) into each well which contains a known quantity of solid drug substance (typically in the range 0.5-5.0 mg). The wells are shaken or stirred for a predefined time period (typically in a range of 2-24 h) and then filtered using appropriate filter membranes (typically PTFE-filters with 0.45 μm pore size). Filter absorption is avoided by discarding the first few drops of filtrate. The amount of dissolved drug substance is determined by UV spectroscopy or by HPLC with UV-detection. In addition, the pH of the aqueous saturated solution is measured using a glass-electrode pH meter.

[5] = target: Human neutrophil elastase (Homo sapiens (Human), UniProt P08246); test: Human Neutrophil Elastase Assay; assay type: biochemical; conditions: substrate MeOSuc-Ala-Ala-Pro-Val-AMC 250 μM, pH 7.5, room temperature
[6] = Metabolic stability with human hepatocytes; assay type: in vitro ADME; conditions: human hepatocyte suspension (typically cryopreserved), 1 μM test compound, six hours, scaled with well stirred model
Description: Assay for the Determination of Metabolic Stability with Human Hepatocytes
The metabolic degradation of the test compound is assayed in a human hepatocyte suspension. Human hepatocytes (typically cryopreserved) are incubated in an appropriate buffer system (e.g. Dulbecco's modified eagle medium plus 3.5 μg glucagon/500 mL, 2.5 mg insulin/500 mL and 3.75 mg/500 mL hydrocortison) containing 5% species serum. Following a (typically) 30 min preincubation in an incubator (37° C., 10% CO2), 5 μl of test compound solution (80 μM; from 2 mM stock solution in DMSO diluted 1:25 with medium) are added into 395 μl hepatocyte suspension (cell density in the range 0.25-5*10^6 cells/mL, typically 1*10^6 cells/mL; final concentration of test compound 1 μM, final DMSO concentration 0.05%). The cells are incubated for six hours (incubator, orbital shaker) and samples (25 μl) are taken at 0, 0.5, 1, 2, 4 and 6 hours. Samples are transferred into acetonitrile and pelleted by centrifugation (5 min) The supernatant is transferred to a new 96-deepwell plate, evaporated under nitrogen and resuspended. The decline of parent compound is analyzed by LC-MS/MS.
The intrinsic clearance CL_[…] is calculated as follows: CL_[…]=Dose/AUC=(C0/CD)/(AUD+clast/k)*1′000/60 (C0: initial concentration in the incubation [μM], CD: cell density of vital cells [10^6 cells/mL], AUD: area under the data [μM*h], clast: concentration of last data point [μM], k: slope of the regression line for parent decline [h^−1])
The calculated in vitro hepatic intrinsic clearance can be scaled up to the intrinsic in vivo hepatic clearance and used to predict hepatic in vivo blood clearance (CL) by the use of a liver model (well stirred model): CL_[…]_INVIVO [ml/min/kg]=(CL_[…] [μL/min/10^6 cells]*hepatocellularity [10^6 cells/g liver]*liver factor [g/kg bodyweight])/1′000 CL [ml/min/kg]=CL_[…]_INVIVO [ml/min/kg]*hepatic blood flow [ml/min/kg]/(CL_[…]_INVIVO [ml/min/kg]+hepatic blood flow [ml/min/kg]) Qh [%]=CL [ml/min/kg]/hepatic blood flow [ml/min/kg]) (Hepatocellularity, human: 120*10^6 cells/g liver; liver factor, human: 25.7 g/kg bodyweight; blood flow, human: 21 ml/(min*kg))

Caco-2 cells = test: Drug transport across human Caco-2 cells; assay type: in vitro ADME; conditions: Caco-2 monolayers, pH 7.2, 37° C.; for PEAB: apical-to-basal; for PEBA: basal-to-apical
Description: as §1, §2, §3, §4, §5

[7] = Metabolic stability with human liver microsomes; assay type: in vitro ADME; conditions: pH 7.6; pooled human liver microsomes, 37° C., 1 μM test compound, 1 mg/ml microsomal protein, NADPH; read-out: t1/2 INVITRO
cytochrome P450 2C9 = cytochrome P450 2C9 (Homo sapiens (Human), UniProt P11712); test: Cytochrome P450 2C9 inhibition; assay type: in vitro ADME; conditions: human liver microsomes, Diclofenac hydroxylation, 37° C.
Description: Assay for Determination of Cytochrome P450 2C9 Inhibition

cytochrome P450 2C8 = cytochrome P450 2C8 (Homo sapiens (Human), UniProt P10632); test: Cytochrome P450 2C8 inhibition; assay type: in vitro ADME; conditions: human liver microsomes, Amodiaquine deethylation, 37° C.
Description: Assay for Determination of Cytochrome P450 2C8 Inhibition

cytochrome P450 2C19 = cytochrome P450 2C19 (Homo sapiens (Human), UniProt P33261); test: Cytochrome P450 2C19 inhibition; assay type: in vitro ADME; conditions: human liver microsomes, (S)-Mephenytoin hydroxylation, 37° C.
Description: Assay for Determination of Cytochrome P450 2C19 Inhibition

Chain of neutrophil elastase in human plasma (P08246 30-247): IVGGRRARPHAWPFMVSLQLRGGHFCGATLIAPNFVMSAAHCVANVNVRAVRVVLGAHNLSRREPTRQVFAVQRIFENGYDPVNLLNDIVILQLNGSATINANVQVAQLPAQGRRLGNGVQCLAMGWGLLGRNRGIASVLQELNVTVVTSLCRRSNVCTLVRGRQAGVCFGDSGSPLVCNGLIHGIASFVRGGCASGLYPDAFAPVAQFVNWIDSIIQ
Chain of Human neutrophil elastase (P08246 30-247): as above
Chain of cytochrome P450 2C8 (P10632 whole entry): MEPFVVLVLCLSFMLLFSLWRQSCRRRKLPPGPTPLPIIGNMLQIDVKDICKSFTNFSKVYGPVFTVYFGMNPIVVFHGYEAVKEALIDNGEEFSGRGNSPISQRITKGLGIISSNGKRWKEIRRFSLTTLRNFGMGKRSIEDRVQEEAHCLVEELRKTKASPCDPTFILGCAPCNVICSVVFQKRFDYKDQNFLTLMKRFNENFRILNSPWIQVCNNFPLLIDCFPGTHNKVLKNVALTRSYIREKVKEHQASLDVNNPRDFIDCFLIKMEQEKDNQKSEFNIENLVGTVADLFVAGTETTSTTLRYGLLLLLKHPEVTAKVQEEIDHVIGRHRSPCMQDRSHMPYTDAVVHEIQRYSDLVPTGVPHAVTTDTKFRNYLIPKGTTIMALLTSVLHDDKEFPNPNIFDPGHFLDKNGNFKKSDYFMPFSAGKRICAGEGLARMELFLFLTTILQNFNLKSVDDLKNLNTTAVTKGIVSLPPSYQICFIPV
Chain of cytochrome P450 2C9 (P11712 whole entry): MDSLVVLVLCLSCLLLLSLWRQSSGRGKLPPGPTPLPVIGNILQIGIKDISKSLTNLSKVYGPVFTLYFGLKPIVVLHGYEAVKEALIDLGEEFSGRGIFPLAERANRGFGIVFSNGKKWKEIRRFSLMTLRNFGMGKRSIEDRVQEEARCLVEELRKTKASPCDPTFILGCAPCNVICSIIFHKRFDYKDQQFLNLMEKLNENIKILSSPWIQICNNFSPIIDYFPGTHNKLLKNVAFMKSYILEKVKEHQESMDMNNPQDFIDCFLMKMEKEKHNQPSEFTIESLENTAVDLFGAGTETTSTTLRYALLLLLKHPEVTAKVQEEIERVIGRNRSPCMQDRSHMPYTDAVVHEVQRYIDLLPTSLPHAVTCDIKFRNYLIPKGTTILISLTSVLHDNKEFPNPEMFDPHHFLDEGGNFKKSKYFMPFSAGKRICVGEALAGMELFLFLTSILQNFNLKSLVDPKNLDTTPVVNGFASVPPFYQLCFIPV
Chain of cytochrome P450 2C19 (P33261 whole entry): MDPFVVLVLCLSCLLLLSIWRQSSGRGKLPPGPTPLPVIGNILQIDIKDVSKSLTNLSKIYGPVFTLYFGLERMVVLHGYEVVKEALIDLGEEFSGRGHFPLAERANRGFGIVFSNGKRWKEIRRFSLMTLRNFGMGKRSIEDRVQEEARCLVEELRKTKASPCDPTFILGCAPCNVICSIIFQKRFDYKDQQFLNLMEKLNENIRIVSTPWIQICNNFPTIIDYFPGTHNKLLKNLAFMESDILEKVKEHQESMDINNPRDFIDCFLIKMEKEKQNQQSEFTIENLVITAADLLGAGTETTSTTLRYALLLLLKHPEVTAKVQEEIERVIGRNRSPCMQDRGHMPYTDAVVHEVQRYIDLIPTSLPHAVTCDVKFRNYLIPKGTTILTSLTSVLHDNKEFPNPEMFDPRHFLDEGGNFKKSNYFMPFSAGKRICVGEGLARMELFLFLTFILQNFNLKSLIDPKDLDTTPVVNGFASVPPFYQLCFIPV

Compound | IC50 [1] [nM] | Papp A→B at 10 µM [2] [×10⁻⁶ cm/s] | Papp B→A at 10 µM [2] [×10⁻⁶ cm/s] | solubility at 24 h [3] [µg/mL] | solubility [4] [µg/mL] | IC50 [5] [nM] | CLhep predicted at 1 μM [6] [mL/min/kg] | PEAB (Caco-2 cells) [cm/s] | PEBA (Caco-2 cells) [cm/s] | Aqueous solubility [3] [mg/mL] | half-life at 1 μM [7] [min] | IC50 (cytochrome P450 2C9) [µM] | IC50 (cytochrome P450 2C8) [µM] | IC50 (cytochrome P450 2C19) [µM]
CN1CCC2=C(C1=O)C(c1ccc(C#N)cc1-c1cncnc1)N(C)C(=O)N2c1cccc(C(F)(F)F)c1 (stereo not shown) [Example 36.3] | 1.4 |  |  |  |  | 1.1 |  | 0.000012 | 0.00011 | 0.076 |  |  |  | 
CN1CCC2=C(C1=O)C(c1ccc(C#N)cc1-c1cccnc1)N(C)C(=O)N2c1cccc(C(F)(F)F)c1 (stereo not shown) [Example 36.1] | 1.8 |  |  |  |  | 1.4 |  | 0.000026 | 0.00011 | 0.070 |  |  |  | 
CN1CCC2=C(C1=O)C(c1ccc(C#N)cc1-c1cnco1)N(C)C(=O)N2c1cccc(C(F)(F)F)c1 (stereo not shown) [Example 37, 4-{3,6-Dimethyl-2,5-dioxo-1-[3-(trifluoromethyl)phenyl]-1H,2H,3H,4H,5H,6H,7H,8H-pyrido[4,3-d]pyrimidin-4-yl}-3-(1,3-oxazol-5-yl)benzonitrile] | 1.1 | 32 | 90 | 60 (≈ 118 µM) | ≥ 10 | < 1 |  |  |  |  | > 130 |  |  | 
CN1CCC2=C(C1=O)C(c1ccc(C#N)cc1-c1cnn(C)c1)N(C)C(=O)N2c1cccc(C(F)(F)F)c1 (stereo not shown) [Example 36, 4-{3,6-Dimethyl-2,5-dioxo-1-[3-(trifluoromethyl)phenyl]4H,2H,3H,4H,5H,6H,7H,8H-pyrido[4,3-d]pyrimidin-4-yl}-3-(1-methyl-1H-pyrazol-4-yl)benzonitrile] | 2.3 | 30 | 83 | 42 (≈ 80.7 µM) | ≥ 10 | < 1 |  |  |  |  | > 130 |  |  | 
CN1CCC2=C(C1=O)C(c1ccc(C#N)cc1-c1ccncc1)N(C)C(=O)N2c1cccc(C(F)(F)F)c1 (stereo not shown) [Example 36.2] | 1.8 |  |  |  |  | 1.3 |  | 0.000025 | 0.00015 | 0.070 |  |  |  | 

Continued, values first:

IC50 [1] [nM] | Papp A→B at 10 µM [2] [×10⁻⁶ cm/s] | Papp B→A at 10 µM [2] [×10⁻⁶ cm/s] | solubility at 24 h [3] [µg/mL] | solubility [4] [µg/mL] | IC50 [5] [nM] | CLhep predicted at 1 μM [6] [mL/min/kg] | PEAB (Caco-2 cells) [cm/s] | PEBA (Caco-2 cells) [cm/s] | Aqueous solubility [3] [mg/mL] | half-life at 1 μM [7] [min] | IC50 (cytochrome P450 2C9) [µM] | IC50 (cytochrome P450 2C8) [µM] | IC50 (cytochrome P450 2C19) [µM] | Compound
< 1 | 6.9 | 61 | 19 (≈ 41.6 µM) | ≥ 10 | < 1 | 3 |  |  |  |  |  |  |  | CN1C(=O)N(c2cccc(C(F)(F)F)c2)C2=C(C(=O)NCC2)[C@H]1c1ccc(C#N)cc1CO [Example 32A, 3-(Hydroxymethyl)-4-[(4R)-3-methyl-2,5-dioxo-1-[3-(trifluoromethyl)phenyl]-1H,2H,3H,4H,5H,6H,7H,8H-pyrido[4,3-d]pyrimidin-4-yl]benzonitrile]
< 1 | 11 | 85 | 60 (≈ 122 µM) | ≥ 10 |  | 3 |  |  |  | > 130 |  |  |  | CN1C(=O)N(c2cccc(C(F)(F)F)c2)C2=C(C(=O)NCC2)[C@H]1c1ccc(C#N)cc1-c1cnco1 [Example 30A, 4-[(4R)-3-Methyl-2,5-dioxo-1-[3-(trifluoromethyl)phenyl]-1H,2H,3H,4H,5H,6H,7H,8H-pyrido[4,3-d]pyrimidin-4-yl]-3-(1,3-oxazol-5-yl)-benzonitrile]
3.4 | 6.6 | 44 | > 100 | ≥ 10 | 3.1 |  |  |  |  | > 130 | > 50 | > 50 | > 50 | N#Cc1ccc([C@H]2NC(=O)N(c3cccc(C(F)(F)F)c3)C3=C2C(=O)NCC3)cc1 [Example 1A, (R)-4-(2,5-Dioxo-1-(3-(trifluoromethyl)phenyl)-1,2,3,4,5,6,7,8-octahydropyrido[4,3-d]-pyrimidin-4-yl)benzonitrile]
1.6 | 11 | 79 |  |  | < 1 | 4 |  |  |  |  | > 50 | > 50 | > 50 | CN1C(=O)N(c2cccc(C(F)(F)F)c2)C2=C(C(=O)NCC2)C1c1ccc(C#N)cc1-c1cccnc1 (stereo not shown) [Example 34, 4-{3-Methyl-2,5-dioxo-1-[3-(trifluoromethyl)phenyl]-1H,2H,3H,4H,5H,6H,7H,8H-pyrido[4,3-d]pyrimidin-4-yl}-3-(pyridin-3-yl)benzonitrile]
